According to publication PMC5522622 (Drug delivery and translational research, 2017):
“Also recorded” adds a separate entry of the source.

Experiments:
[1] = test system: adult rat cardiomyocytes; assay: Adult rat cardiomyocyte viability by trypan blue assay; type: cell-based; settings: 18 h; for cell death: 10 µM, trypan blue; for cell death, concentration dependence: 1, 5 and 10 µM
[2] = test system: reactive oxygen species in RL-14 cells; assay: Reactive oxygen species levels by DCF assay in RL-14 cells; type: cell-based, human; settings: 10 µM, 24 h
[3] = test system: MDCK-MDR cells (P-gp positive); assay: Fluorescence imaging of doxorubicin uptake by MDCK-MDR cells; type: cell-based, canine
[4] = test system: CYP1B1; settings: MROD and EROD, RL-14 cells
[5] = Antioxidant assay kit
[6] = test system: BNP; assay: BNP mRNA expression in RL-14 cells by real-time PCR; type: cell-based, human; settings: 10 µM, 24 h
[7] = In vitro drug release of DoxQ in PBS with 10% FBS at 37 °C, HPLC; type: in vitro ADME
[8] = test system: CYP1B1; settings: RL-14 cells
[9] = target: CYP3A4 (Homo sapiens, UniProt P08684)
[10] = test system: α-MHC; assay: α-MHC mRNA expression in RL-14 cells by real-time PCR; settings: 10 µM, 24 h
[11] = Water solubility; type: physicochemical; settings: stated in words, no test described
[12] = test system: β-MHC; assay: β-MHC mRNA expression in RL-14 cells by real-time PCR; settings: 10 µM, 24 h
[13] = test system: triple-negative murine breast cancer cell line; assay: Cytotoxicity by resazurin blue assay; type: cell-based; settings: 72 h
[14] = test system: GST-A1; assay: GST-A1 mRNA expression in RL-14 cells by real-time PCR; type: cell-based, human; settings: 10 µM, 24 h
[15] = test system: human cardiomyocytes (RL-14); assay: RL-14 cell viability by MTT assay; type: cell-based; settings: 10 µM, 24 h, MTT
[16] = test system: HO-1; assay: HO-1 mRNA expression in RL-14 cells by real-time PCR; type: cell-based, human; settings: 10 µM, 24 h
[17] = RL-14 cell viability by MTT assay; type: cell-based, human; settings: human, RL-14 cardiomyocyte cells

Chain of CYP3A4 (P08684 whole entry): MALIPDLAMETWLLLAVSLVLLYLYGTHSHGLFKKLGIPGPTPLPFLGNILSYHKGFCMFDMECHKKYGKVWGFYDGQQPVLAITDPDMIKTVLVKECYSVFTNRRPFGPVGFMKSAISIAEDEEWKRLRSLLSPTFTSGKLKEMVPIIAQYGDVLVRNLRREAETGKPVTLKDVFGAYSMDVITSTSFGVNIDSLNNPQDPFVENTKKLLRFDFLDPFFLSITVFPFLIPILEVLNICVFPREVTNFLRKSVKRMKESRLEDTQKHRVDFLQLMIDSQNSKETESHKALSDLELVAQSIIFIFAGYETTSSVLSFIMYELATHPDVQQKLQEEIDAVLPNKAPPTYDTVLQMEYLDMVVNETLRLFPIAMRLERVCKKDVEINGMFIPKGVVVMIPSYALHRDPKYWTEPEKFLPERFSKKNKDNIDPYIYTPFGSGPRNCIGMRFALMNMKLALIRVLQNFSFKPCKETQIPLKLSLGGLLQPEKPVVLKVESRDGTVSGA

With `COc1cccc2c1C(=O)c1c(O)c3c(c(O)c1C2=O)CC(O)(C(=O)CO)CC3OC1CC(NC(=O)CNC(=O)Oc2ccc(-c3oc4cc(O)cc(O)c4c(=O)c3O)cc2O)C(O)C(C)O1` (stereo not shown) [DoxQ, quercetin-Gly-Dox] the cell death [1] was ~ 17%, the “cell death, concentration dependence” value [1] was “dose-response effect” and the “difference in ROS level versus free doxorubicin” value [2] was ~ 234%. The “fluorescence signal in cells compared to free doxorubicin” value ([3]; 50 nM, Fig. 4) was “higher”, the “drug uptake (fluorescence signal, ImageJ) compared to free doxorubicin” value ([3]; after 5-min treatment, Fig. 5a) was “significantly enhanced” and the “CYP1B1 catalytic activity, in words” value [4] was “significantly inhibited; also recorded: reversed these effects”. The “antioxidant capacity compared to quercetin alone” value ([5]; 1 and 10 mM) was “significantly higher”, the “antioxidant capacity compared to a mixture of doxorubicin and quercetin” value ([5]; 10 and 50 mM) was “significantly higher” and the “antioxidant effect compared to doxorubicin” value ([5]; all concentrations studied (1, 10, 50)) was “significantly higher”. For the same molecule, the “inhibition of induction of BNP mRNA expression compared to doxorubicin” value [6] was 6 folds, the “duration of in vitro release of doxorubicin from the conjugate” value ([7]; Fig. 3) was “more than 4 days” and the “release t1/2 of quercetin from the conjugate” value ([7]; aqueous medium, second-order kinetics) was “approximately 100 h”. For the same molecule, the “CYP1B1 mRNA expression, in words” value [8] was “reversed these effects”, the “inhibition of CYP1B1 mRNA expression compared to doxorubicin” value ([8]; Fig. 15a) was “more than 4 folds” and the “CYP3A4 inhibition (percentage relative to ketoconazole), in words” value ([9]; 0.01, 0.1, 1, 10, 50 and 100 µM) was “inhibited CYP3A4 at all the concentrations tested”. For the same molecule, the “concentration with the highest CYP3A4 inhibition” value ([9]; range tested 0.01-100 µM) was 10 nM, the “inhibition of induction of α-MHC mRNA expression compared to doxorubicin” value [10] was 1.5 folds and the water solubility [11] was “very poor”. For the same molecule, the “inhibition of induction of β-MHC mRNA expression compared to doxorubicin” value [12] was 2.5 folds, the “IC50 relative to doxorubicin alone or a mixture of doxorubicin and quercetin” value [13] was “more than twofold higher” and the “cytotoxicity compared to doxorubicin or mixture” value [13] was “substantially less toxic”. For the same molecule, the IC50 ([13]; given in words) was “micromolar range”, the “lowering of GST-A1 mRNA expression in comparison to doxorubicin” value [14] was 1.5 folds and the cell viability [15] was 77%. The “prevention of the cytotoxicity mediated by doxorubicin” value [15] was ~ 25%.

With `COc1cccc2c1C(=O)c1c(O)c3c(c(O)c1C2=O)C[C@@](O)(C(=O)CO)C[C@@H]3O[C@H]1C[C@H](N)[C@H](O)[C@H](C)O1` [doxorubicin, Doxorubicin, reference compound] the “HO-1 expression lower compared to cells treated with DoxQ” value [16] was 1 fold, the cell death [1] was ~ 22% and the “cell death, concentration dependence” value [1] was “dose-response effect”. For the same molecule, the “CYP1B1 catalytic activity, in words” value [4] was “induced”, the “BNP mRNA expression versus control, in words” value [6] was “induced” and the “CYP1B1 mRNA expression, in words” value [8] was “induced”. The “α-MHC mRNA expression versus control, in words” value [10] was “induced”, the “β-MHC mRNA expression versus control, in words” value [12] was “induced” and the viability at 24 h, 10 µM [17] was 52%.
